From ChEMBL document CHEMBL6078657, “Thiazolidinedione-based structure modification of ergosterol peroxide provides thiazolidinedione-conjugated derivatives as potent agents against breast cancer cells through a PI3K/AKT/mTOR pathway” (Bioorg Med Chem, 2025) come the findings set out here.

pIC50: −log10 of the molar value. Calls of active or inactive are those of the source. No cut-off for these calls is given here.

One data set deals with HepG2. In words: Antiproliferative activity against human HepG2 cells assessed as cell viability measured after 48 hrs incubation by MTT assay. It is filed as functional, cell-based. To be noted: HepG2, 48 h.
The subject of data set [1] is MCF7. Description: Induction of apoptosis in human MCF7 cells assessed as viable cells at 6 uM measured after 48 hrs incubation by Annexin V-FITC/PI double staining assay (reference value: 92.8%). It is filed as functional. The conditions noted are these: read-out: Activity.
For data set [2], the system named is MCF7. In words: Induction of apoptosis in human MCF7 cells assessed as increase in ROS production by measuring bright green fluorescence measured after 48 hrs incubation by DCFH-DA staining based flow cytometry assay. It is filed as functional, cell-based. The conditions noted are these: dose 1-6 µM.
Data set [3] concerns MCF7. In words: Induction of cell cycle arrest in human MCF7 cells assessed as accumulation of cells at G0/G1 phase at 6 uM measured after 48 hrs by PI staining based flow cytometry analysis (reference value: 58.42%). It is filed as functional.
Data set [4] has as its system MCF7. In words: Induction of cell cycle arrest in human MCF7 cells assessed as accumulation of cells at G2/M phase at 6 uM measured after 48 hrs by PI staining based flow cytometry analysis (reference value: 16.91%). It is filed as functional.
Data set [5] relates to MCF7. Description: Induction of cell cycle arrest in human MCF7 cells assessed as accumulation of cells at S phase at 1 uM measured after 48 hrs by PI staining based flow cytometry analysis (reference value: 24.67%). It is filed as functional.
In data set [6] the test system is MCF7. In words: Induction of cell cycle arrest in human MCF7 cells assessed as accumulation of cells at G2/M phase at 1 uM measured after 48 hrs by PI staining based flow cytometry analysis (reference value: 16.91%). It is filed as functional.
In data set [7] the test system is MCF7. Description: Induction of cell cycle arrest in human MCF7 cells assessed as accumulation of cells at G2/M phase at 3 uM measured after 48 hrs by PI staining based flow cytometry analysis (reference value: 16.91%). It is filed as functional.
For data set [8], the system named is MCF7. Description: Inhibition of phosphorylation of PI3K in human MCF7 cells measured after 48 hrs by Western blot analysis. It is filed as cell-based. The conditions noted are these: dose 1-6 µM.
The next data set concerns 4T1. In words: In vivo antitumor activity against mouse 4T1 cells transfected in BALB/c mouse assessed as tumor growth inhibition at 15 mg/kg, ip daily for 14 consecutive days relative to control. It is filed as functional. To be noted: 4T1, 336 h, time 14 day, read-out: TGI.
Data set [9] in a line: Toxicity in healthy BALB/c mouse assessed as pathological changes in spleen at 20 mg/kg, ip daily for 14 consecutive days by HE staining based assay. It is filed as organism-based. To be noted: in vivo, 336 h, time 14 day.
The nature of data set [10]: Toxicity in healthy BALB/c mouse assessed as pathological changes in lungs at 20 mg/kg, ip daily for 14 consecutive days by HE staining based assay. It is filed as organism-based. To be noted: in vivo, 336 h, time 14 day.
The nature of data set [11]: Toxicity in healthy BALB/c mouse assessed as pathological changes in kidneys at 20 mg/kg, ip daily for 14 consecutive days by HE staining based assay. The conditions noted are these: in vivo, 336 h, time 14 day. It is filed as organism-based.

`CC(C)[C@@H](C)/C=C/[C@@H](C)[C@H]1CC[C@@H]2[C@]1(C)CC[C@H]1[C@]23C=C[C@]2(C[C@@H](OC(=O)NCCNC(=O)CN4C(=O)S/C(=C\c5cccc6ccccc56)C4=O)CC[C@]12C)OO3`: in the data set with HepG2, the pIC50 is 5.26. Also, the viability at 6 µM with MCF7 [1] was 53%. Moreover, the result in the data set on MCF7 [2] was Active. The Activity in the data set on MCF7 [3] is 89.86%; with MCF7 [4], 7.27%; in the data set with MCF7 [5], 14.93%; in the data set on MCF7 [6], 18.98%; in the data set with MCF7 [7], 10.83%; in [9] it was “Non-toxic”. Besides, the Activity entry in [10] and in [11] was “Non-toxic” each time. Besides, in the data set on MCF7 [8], the inhibition result was “Dose-dependent-effect”. Besides, the inhibition in vivo at 15 mg/kg in the data set with 4T1 worked out at 33.5%.
